Values quoted from earlier work as cited in PubChem BioAssay AID1259409 (Chemical Carcinogenesis Research Information System (CCRIS), 2018).

Test system: rodent chemically induced tumor inhibition, incidence and multiplicity
Assay: CCRIS tumor inhibitor studies
Conditions: Species: MOUSE, Promoter: NONE USED

CCCCc1cccs1
tumour outcome (control, treated, inhibition, significance) (Carcinogen: BENZO[A]PYRENE, 50-32-8, Dose [Inhibitor]: 0, 45 UMOL IN 0.2 ML COTTONSEED OIL 3/WK FOR 4 WK BEGINNING 1 DAY PRIOR TO FIRST CARCINOGEN DOSE AND TERMINATING 1 DAY A, Route [Inhibitor]: GAVAGE, Strain/Sex: STRAIN-A/FEMALE, Target Tissue: Type of Lesion: FORESTOMACH: TUMOR, Dose [Carcinogen]: 1 MG 2/WK FOR 4 WK): 14/17 (82%), 9/18 (50%), 39%, p<0.05
tumour outcome (control, treated, inhibition, significance) (Carcinogen: BENZO[A]PYRENE, 50-32-8, Dose [Inhibitor]: 0, 45 UMOL IN 0.2 ML COTTONSEED OIL 3/WK FOR 4 WK BEGINNING 1 DAY PRIOR TO FIRST CARCINOGEN DOSE AND TERMINATING 1 DAY A, Route [Inhibitor]: GAVAGE, Strain/Sex: STRAIN-A/FEMALE, Target Tissue: Type of Lesion: LUNG: TUMOR, Dose [Carcinogen]: 1 MG 2/WK FOR 4 WK): 17/17 (100%), 18/18 (100%), 0%, not significant
tumour outcome (control, treated, inhibition, significance) (Carcinogen: BENZO[A]PYRENE, 50-32-8, Dose [Inhibitor]: 0, 90 UMOL IN 0.2 ML COTTONSEED OIL 3/WK FOR 4 WK BEGINNING 1 DAY PRIOR TO FIRST CARCINOGEN DOSE AND TERMINATING 1 DAY A, Route [Inhibitor]: GAVAGE, Strain/Sex: STRAIN-A/FEMALE, Target Tissue: Type of Lesion: FORESTOMACH: TUMOR, Dose [Carcinogen]: 1 MG 2/WK FOR 4 WK): 14/17 (82%), 9/13 (69%), 16%, not significant
tumour outcome (control, treated, inhibition, significance) (Carcinogen: BENZO[A]PYRENE, 50-32-8, Dose [Inhibitor]: 0, 90 UMOL IN 0.2 ML COTTONSEED OIL 3/WK FOR 4 WK BEGINNING 1 DAY PRIOR TO FIRST CARCINOGEN DOSE AND TERMINATING 1 DAY A, Route [Inhibitor]: GAVAGE, Strain/Sex: STRAIN-A/FEMALE, Target Tissue: Type of Lesion: LUNG: TUMOR, Dose [Carcinogen]: 1 MG 2/WK FOR 4 WK): 17/17 (100%), 13/13 (100%), 0%, not significant

Cn1cnc2c1c(=O)[nH]c(=O)n2C
tumour outcome (control, treated, inhibition, significance) (Carcinogen: URETHANE, 51-79-6, Dose [Inhibitor]: 0.05 UMOL/G BW GIVEN AS 7 INJECTIONS 1/6 HR FOR 36 HR AFTER CARCINOGEN TREATMENT FOLLOWED BY 5 MO OBSERVATION PERIOD (ST, Route [Inhibitor]: INTRAPERITONEAL, Strain/Sex: ICR/FEMALE, Target Tissue: Type of Lesion: LUNG: PAPILLARY ADENOMA, Dose [Carcinogen]: 0.1 MG/G BW ONCE AT 25 D OF AGE): 31/59 (53%), 11/56 (20%), 62%, p<0.001

CCCCC(O)CCC(=O)c1ccccc1 (stereo unspecified)
tumour outcome (control, treated, inhibition, significance) (Carcinogen: 4-(METHYLNITROSAMINO)-1-(3-PYRIDYL)-1-BUTANONE, 64091-91-4, Dose [Inhibitor]: 0, 25 UMOL IN 0.1 ML CORN OIL ONCE 2 HR PRIOR TO CARCINOGEN DOSE (STUDY DURATION: 16 WK), Route [Inhibitor]: GAVAGE, Strain/Sex: STRAIN-A/FEMALE, Target Tissue: Type of Lesion: LUNG: TUMOR, Dose [Carcinogen]: 10 UMOL IN 0.1 ML SALINE ONCE): 100%, 100%, 0%, not significant
